Measured values from the NIST ThermoML archive (doi:10.1016/j.jct.2004.11.016).

Assay: xn = mol fraction of the nth substance listed
Details: Liquid; for mass density: 101.3 kPa; for viscosity: 101 kPa

CN(C)CCO [2-(N,N-dimethylamino)ethanol] + O
Details	mass density, 293.15 K [kg/m3]	mass density, 298.15 K [kg/m3]	mass density, 303.15 K [kg/m3]	mass density, 308.15 K [kg/m3]	mass density, 313.15 K [kg/m3]	mass density, 318.15 K [kg/m3]	mass density, 323.15 K [kg/m3]	viscosity, 313.15 K [mPa·s]	viscosity, 323.15 K [mPa·s]
x1 = 0.0121	996.588	995.282	993.747	991.994	989.83	986.678	–	–	–
x1 = 0.0218	995.236	993.748	992.024	990.035	987.566	985.311	–	–	–
x1 = 0.0252	994.947	993.401	991.591	989.243	986.624	–	–	–	–
x1 = 0.0359	994.033	992.24	990.239	988.048	985.713	983.206	–	–	–
x1 = 0.0617	992.027	989.74	987.103	984.421	981.605	978.661	975.591	–	–
x1 = 0.1009	988.909	985.747	982.49	979.144	975.714	972.197	968.595	2.669	1.957
x1 = 0.2017	973.822	969.911	965.929	961.896	957.808	953.663	949.451	5.071	3.487
x1 = 0.3033	956.823	952.768	948.646	944.47	940.237	935.946	931.598	6.593	4.435
x1 = 0.4051	941.071	936.991	932.844	928.641	924.379	920.062	915.685	6.58	4.433
x1 = 0.5077	927.808	923.722	919.567	915.367	911.114	906.806	902.436	5.885	4.044
x1 = 0.6099	916.51	912.41	908.259	904.055	899.803	895.501	891.144	4.784	3.393
x1 = 0.7652	903.034	898.903	894.723	890.503	886.233	881.923	877.562	3.467	2.573
x1 = 0.895	894.185	889.991	885.767	881.507	877.213	872.876	–	2.72	2.089
x1 = 1	887.816	883.578	879.315	875.017	870.686	866.316	–	2.238	1.756
